Legend:
[1] = system: H9c2 cells; test: Cytotoxicity of RSSH donors, CCK-8 assay; type: cell-based; details: up to 200 μM, 24 h
Procedure: We evaluated the cytoprotective effects of RSSH precursors against DOX-induced cardiotoxicity in H9c2 cardiomyoblasts. First, we assessed the cytotoxicity of the RSSH donors (AST-2, APT-1, AST-2-TPP, and APT-1-TPP) using the CCK-8 assay.[24] […] To evaluate cytoprotection, H9c2 cells were pretreated with RSSH donors for 4 h, followed by 24 h co-treatment with DOX (5 μM). As expected, DOX alone reduced cell viability to ca. 50% (Figure 4a). […] Although both compounds were protective, […]. […] A distinctive feature of our study is the direct comparison between mitochondria-targeted and non-targeted RSSH donors. […] TPP conjugation only modestly enhances the cytoprotective effects of RSSH donors under our experimental conditions. This outcome may reflect the intrinsic high efficacy of non-targeted RSSH donors, thereby limiting the additional benefit of mitochondrial targeting. […]
Cytotoxicity Assessment of Hydropersulfide Precursors in H9c2 and HepG2 cells Cell viability was measured using the Cell Counting Kit-8 (CCK-8, Dojindo).[7] H9c2 cardiomyoblast and HepG2 cells were seeded at a density of 8 × 10³ cells/well in a 96-well plate (flat-bottom, tissue culture-treated). […] All treatments were prepared with a final DMSO concentration of <0.01%. In the vehicle control group, cells were treated with medium (DMEM with 10% FBS) containing 0.01% DMSO only. Cells were incubated with RSSH donors for an additional 24 h. After 24 h, cells were gently washed three times with PBS, pH 7.4. […] The plates were then incubated for 1-2 h before measuring absorbance at 450 nm using a plate reader […]
calculated as: % Viability = 100 × [Abs₄₅₀ (treated cells) / Abs₄₅₀ (vehicle control)]. Each treatment condition was performed in 6 technical replicates per biological replicate, and the experiment was independently repeated three times (n = 3 biological replicates). Data are presented as mean ±
(1 picture or pasted object on this page, not shown here)
Figure S23. Impact of (A) AST-2 or AST-2-TPP (0-200 µM) and (B) APT-1 (0-200 µM) or APT -1-TPP (0-200 µM) on H9c2 cardiomyocytes. Impact of (C) AST-2 or AST-2-TPP (0-200 µM) and (D) APT-1 (0-200 µM) or APT-1-TPP (0-200 µM) on HepG2 (liver cancer) cells. Results are expressed as mean ± SEM, n≥3; *P<0.05, **P<0.01, ***P<0.001, ****P<0.0001. Ctl = vehicle (medium with 0.01% DMSO) treated cells. […]

[2] = system: H9c2 cells; test: Cytoprotection against DOX-induced toxicity, CCK-8 assay; type: cell-based; details: 4 h pretreatment, then 24 h co-treatment with DOX 5 μM
Procedure: We evaluated the cytoprotective effects of RSSH precursors against DOX-induced cardiotoxicity in H9c2 cardiomyoblasts. First, we assessed the cytotoxicity of the RSSH donors (AST-2, APT-1, AST-2-TPP, and APT-1-TPP) using the CCK-8 assay.[24] […] To evaluate cytoprotection, H9c2 cells were pretreated with RSSH donors for 4 h, followed by 24 h co-treatment with DOX (5 μM). As expected, DOX alone reduced cell viability to ca. 50% (Figure 4a). […] Although both compounds were protective, no enhancement of potency was observed upon TPP conjugation. […] A distinctive feature of our study is the direct comparison between mitochondria-targeted and non-targeted RSSH donors. […] TPP conjugation only modestly enhances the cytoprotective effects of RSSH donors under our experimental conditions. This outcome may reflect the intrinsic high efficacy of non-targeted RSSH donors, thereby limiting the additional benefit of mitochondrial targeting.
Figure 4. Protective effects of RSSH donors against DOX-induced cytotoxicity in H9c2 cells. Cells were pretreated with RSSH donors for 4 h, followed by exposure to DOX (5 μM) for an additional 24 h. Cell viability was assessed using the cell counting Kit-8 (CCK-8) assay. Results are expressed as mean ± SEM, n = 3; *P < 0.05, **P < 0.01, ***P < 0.001, ****P < 0.0001. Ctl = vehicle-treated group (0.01% DMSO in medium). […]
Cytoprotective Effects of RSSH Donors against Doxorubicin Toxicity
Cytoprotective studies were performed as previously described.[8] Briefly, H9c2 cells, HepG2 cells, MDA-MB-468 cells, and MCF-7 cells were seeded at a density of 7 x 10^3 cells/well. […] Additionally, in the vehicle control group, cells were treated with medium (DMEM with 10% FBS) containing 0.01% DMSO only. The cells were then further incubated for an additional 4 h before being treated with DOX (10 μL/well, with final concentration of 5 μM). After a 24 h co-incubation with DOX, each well was carefully washed three times with PBS (pH 7.4) and 100 μL o f F B S-free medium containing 10% v/v CCK-8 (Dojindo) was added. The plates were then incubated for 1-2 h before measuring absorbance at […]
The relative % cell viability was calculated as 100 times the ratio of Abs450 (RSSH donor + DOX-exposed) to Abs450 (vehicle, non-DOX-exposed). Each treatment condition was performed in 6 technical replicates per biological replicate, and the experiment was independently repeated three times (n = 3 biological replicates). Data are presented as mean ± SEM. […]

| SMILES | cytotoxicity of donor alone [1] | protection against DOX-induced cytotoxicity [2] | concentration of maximal protection [2] [µM] | concentration with significant protective effects [2] [µM] |
| --- | --- | --- | --- | --- |
| COC(=O)C(NC(C)=O)C(C)(C)SSC(=O)N(C)CCOC(C)=O (stereo not drawn) [APT-1] | no measurable toxicity | dose-dependent cytoprotective effect | – | – |
| COC(=O)SSC(C)(C)C(NC(C)=O)C(=O)N(C)CCC[P+](c1ccccc1)(c1ccccc1)c1ccccc1 (stereo not drawn) [AST-2-TPP] | no measurable toxicity | dose-dependent protection | 25 | ≥ 1 |
| CC(=O)NC(C(=O)N(C)CCC[P+](c1ccccc1)(c1ccccc1)c1ccccc1)C(C)(C)SSC(=O)N(C)CCOC(C)=O (stereo not drawn) [APT-1-TPP] | no measurable toxicity | dose-dependent cytoprotective effect | – | – |
| COC(=O)SSC(C)(C)C(NC(C)=O)C(=O)OC (stereo not drawn) [AST-2] | no measurable toxicity | dose-dependent protection | 25 | ≥ 1 |
